ChEMBL document CHEMBL1129136, “Synthesis and evaluation of amino acid ester prodrugs of penciclovir” (Bioorg Med Chem Lett, 1996)

Legend:
[1] = Half life was measured at pH 1.0 and at 37 degree Celsius temperature; assay type: ADME
Vero = test: Compound was tested for its antiviral activity against HSV-1(KOS strain) in vero cells; assay type: functional, cell-based; settings: Chlorocebus sabaeus
[2] = Half life was measured at pH 7.4 and at 37 degree Celsius temperature; assay type: ADME
[3] = Half life was measured […] at 37 degree Celsius temperature by HPLC assay using a c18 reversed-phase column.; assay type: ADME
[4] = Half life was measured at pH 8.0 and at 37 degree Celsius temperature; assay type: ADME
Mus musculus = test: Compound was tested to determine the total amount of penciclovir recovered in the urine over a 48-h period after a single oral dose of 0.2 mmol/kg.; assay type: functional

Q: What does the source list for `CCC(C)[C@H](N)C(=O)OCC(CCn1cnc2c(O)nc(N)nc21)COC(C)=O.Cl` (some centres undefined)?
A: half-life [1]: 19.4 h; EC50 (Vero): > 100 µM; half-life [2]: 24.8 h; half-life [3]: 105 h; half-life [4]: 19.1 h; Dose (urinary recovery) (Mus musculus): 15%

Q: Which results are given for `CCC(C)[C@H](N)C(=O)OCC(CCn1cnc2c(O)nc(N)nc21)COC(=O)[C@@H](N)C(C)CC.Cl.Cl` (some centres undefined)?
A: half-life [1]: > 168 h; EC50 (Vero): 42.3 µM; half-life [2]: 11.4 h; half-life [3]: 52.9 h; half-life [4]: 9.8 h; Dose (urinary recovery) (Mus musculus): 9%

Q: Which results are given for `CCC(C)[C@H](N)C(=O)OCC(CCn1cnc2c(O)nc(N)nc21)COC(=O)C(C)C.Cl` (some centres undefined)?
A: half-life [1]: 46.5 h; EC50 (Vero): > 100 µM; half-life [2]: 24.9 h; half-life [3]: 83.5 h; half-life [4]: 19.4 h; Dose (urinary recovery) (Mus musculus): 13%

Q: Which half-life [1] does the source give for `CCC(=O)OCC(CCn1cnc2c(O)nc(N)nc21)COC(=O)[C@@H](N)C(C)CC.Cl` (some centres undefined) here?
A: 19 h

Q: What about the EC50 (Vero) of the same compound?
A: > 100 µM

Q: What about the half-life [2] of the same compound?
A: 25 h

Q: And the half-life [3]?
A: 83.5 h

Q: And the half-life [4]?
A: 19.9 h

Q: And the “Dose (urinary recovery)” value (Mus musculus)?
A: 20%

Q: What does the source list for `CC(=O)OCC(CCn1cnc2cnc(N)nc21)COC(C)=O` [FAMCICLOVIR]?
A: EC50 (Vero): > 100 µM; Dose (urinary recovery) (Mus musculus): 33%

Q: What does the source list for `Nc1nc(O)c2ncn(CCC(CO)CO)c2n1` [PENCICLOVIR]?
A: EC50 (Vero): 8.1 µM; Dose (urinary recovery) (Mus musculus): 9%

Q: With `CC(C)[C@H](N)C(=O)OCC(CCn1cnc2c(O)nc(N)nc21)COC(=O)[C@@H](N)C(C)C.Cl.Cl` as the compound, how does the half-life [1] read?
A: > 168 h

Q: What about the EC50 (Vero) of the same compound?
A: 25.5 µM

Q: And the half-life [2]?
A: 6.7 h

Q: And the half-life [3]?
A: 30.9 h

Q: And the half-life [4]?
A: 6 h

Q: What about the “Dose (urinary recovery)” value (Mus musculus) of the same compound?
A: 25%

Q: Which half-life [1] does the source give for `CC(C)C(=O)OCC(CCn1cnc2c(O)nc(N)nc21)COC(=O)[C@@H](N)C(C)C.Cl` (some centres undefined) here?
A: 47.5 h

Q: And the EC50 (Vero)?
A: > 100 µM

Q: And the half-life [2]?
A: 19.1 h

Q: And the half-life [3]?
A: 120 h

Q: And the half-life [4]?
A: 14.4 h

Q: And the “Dose (urinary recovery)” value (Mus musculus)?
A: 20%

Q: Which half-life [1] does the source give for `CCC(=O)OCC(CCn1cnc2c(O)nc(N)nc21)COC(=O)[C@@H](N)C(C)C.Cl` (some centres undefined) here?
A: 19.2 h

Q: And the EC50 (Vero)?
A: > 100 µM

Q: And the half-life [2]?
A: 17.3 h

Q: And the half-life [3]?
A: 104 h

Q: And the half-life [4]?
A: 13.6 h

Q: And the “Dose (urinary recovery)” value (Mus musculus)?
A: 25%

Q: What does the source list for `CCCC(=O)OCC(CCn1cnc2c(O)nc(N)nc21)COC(=O)[C@@H](N)C(C)CC.Cl` (some centres undefined)?
A: half-life [1]: 34 h; EC50 (Vero): 24.2 µM; half-life [2]: 27 h; half-life [3]: 93.7 h; half-life [4]: 19.9 h; Dose (urinary recovery) (Mus musculus): 19%

Q: Which half-life [1] does the source give for `CCCC(=O)OCC(CCn1cnc2c(O)nc(N)nc21)COC(=O)[C@@H](N)C(C)C.Cl` (some centres undefined) here?
A: 33.3 h

Q: And the EC50 (Vero)?
A: 42 µM

Q: And the half-life [2]?
A: 18.4 h

Q: And the half-life [3]?
A: 122 h

Q: What about the half-life [4] of the same compound?
A: 14.1 h

Q: And the “Dose (urinary recovery)” value (Mus musculus)?
A: 29%

Q: With `CC(=O)OCC(CCn1cnc2c(O)nc(N)nc21)COC(=O)[C@@H](N)C(C)C.Cl` (some centres undefined) as the compound, how does the half-life [1] read?
A: 19.4 h

Q: What about the EC50 (Vero) of the same compound?
A: > 100 µM

Q: What about the half-life [2] of the same compound?
A: 13.2 h

Q: And the half-life [3]?
A: 108 h

Q: What about the half-life [4] of the same compound?
A: 13.2 h

Q: And the “Dose (urinary recovery)” value (Mus musculus)?
A: 34%
